# Laboratory results: patent US20190218170A1, “BRANCHED TRIALKYLAMINE PRECURSORS, INTERMEDIATES, PRODUCTS MADE THEREFROM AND PROCESSES OF MANUFACTURE” (priority 2018, published 2019)
# Where two headings read alike, the source gives them in different places.
# Key:
# [1] = test system: Escherichia coli; assay: Microplate dilution assay MIC/MLC; assay type: cell-based; settings: for MIC < 10%: growth less than 10% of control, 24 hours, 32° C.; for MIC < 50%: growth less than 50% of control; for MLC: minimum lethal concentration
# Procedure: (§1) The minimum inhibitory concentration (MIC) and the minimum lethal concentration (MLC) of the chemicals were determined using a microplate dilution assay. Quats were provided as aqueous solutions, while Triclosan and Chloroxylenol were provide as powders which were first dissolved at 5 weight percent in absolute ethanol. A two-fold serial dilution series of each test chemical was prepared in Trypticase Soy Broth at 20% of the standard concentration (TSB20) and in Sabouraud Dextrose Broth at 20% of the standard concentration (SDB20) in 96-well micro-titer plates. A total of 10 dilutions were prepared and four replicate tests were performed for each dilution. […] Control solutions containing only media were included for each plate. Suspensions of Staphylococcus aureus, Escherichia coli, and Candida albicans were prepared from one-day old agar plate cultures in Butterfields Phosphate Diluent to a concentration of approximately 10^7 to 10^8 cells per milliliter. Each test well was inoculated with the diluted culture suspensions at a concentration of 10^3 to 10^4 cells per well and then incubated at 32° C. with shaking at 150 rpm for approximately 24 hours, after which the optical density of each well was determined spectrophotometrically at 600 nm. Wells containing uninoculated media without test chemical were included in each plate as negative controls and, following inoculation, as positive controls.
# (§2) Selected wells at or below the MIC were tested for MLC by spotting three microliters from each replicate well onto Trypticase Soy agar for S. aureus and E. coli, or Sabouraud Dextrose agar for C. albicans.
# [2] = test system: Candida albicans; assay: Microplate dilution assay MIC/MLC; assay type: cell-based; settings: for MIC < 10%: growth less than 10% of control; for MIC < 50%: growth less than 50% of control; for MLC: minimum lethal concentration
# Procedure: as §1, §2
# [3] = test system: Staphylococcus aureus; assay: Microplate dilution assay MIC/MLC; assay type: cell-based; settings: for MIC < 10%: growth less than 10% of control; for MIC < 50%: growth less than 50% of control; for MLC: minimum lethal concentration
# Procedure: as §1, §2
# [4] = Ready Biodegradability CO2 Evolution Test OECD 301B
# Procedure: The biodegradability of the branched aldehyde intermediates of Example 2 (4-ethyl-2-methyloctanal) and Example 25 (2,4-diethyl-2-octenal) were determined by the Ready Biodegradability—CO2 Evolution Test—Degradation of test compound according to OECD Guidelines for Testing of Chemicals CO2 Evolution Test 301B.
# [5] = Foaming of amine oxide added to commercial laundry liquid (Waring blender); assay type: physicochemical; parameters: Difference: unit: ml; settings: for Difference: initial minus 5 min foam volume
# Procedure: The surface foam volume and foam persistence of solutions of the amine oxides with linear and branched hydrophobes from Examples […] were compared. A commercial laundry liquid was diluted in deionized water according to the dosing instructions; 4.2 ml/L Persil Original. The diluted detergent was supplemented with 0%, 2%, 5% (based on wt laundry liquid) of LAO or Branched C12 AO, (2,4-diethyl-N,N-dimethyloctan-1-amine oxide, Example 66), and the solutions mixed briefly and used immediately. 250 ml of each test solution was added the beaker of a Waring blender, capped, and then blended on High for 30 seconds and immediately transferred to a 1 L graduated cylinder. The total volume of foam plus liquid, as well as the liquid layer alone was recorded. The foam and liquid volumes were recorded again after 5 minutes. All tests were performed in triplicate.
# [6] = Draves Wetting Test (ASTM D2281-68); assay type: physicochemical; settings: 0.05 wt % (actives basis) in DI water; average of 3 measurements
# Procedure: A 0.05 wt % (actives basis) solution of amine oxide in deionized (DI) water was used to determine the Draves wet-out time (WOT) in seconds. 0.75 g of surfactant was dispersed in 1,500 ml of DI water. The wet-out time (WOT) in seconds is recorded in Table 14 (average of 3 measurements). LAO is Lauramine oxide (linear hydrophobe), Sigma catalog number 40236.
# [7] = test system: zein protein
# From the text: Amine oxides with linear and branched hydrophobes from Examples 65 and 66 were compared in a screen to predict mildness of surfactants. There is a correlation between the ability of a surfactant to denature a protein and the skin irritation potential of that surfactant. The relationship is believed to result from surfactant binding to proteins like keratin, followed by the denaturation of these proteins, leading to skin irritation. A common screening test involves measuring the amount of zein (a corn protein which is insoluble in water) solubilized by a surfactant solution, the Zein Solubilization Test (Moore et al., 2003 and references therein)
# For the test, 0.0750 g of zein protein is transferred into a 1.5 mL centrifuge tube. To this 1.5 mL of 1% surfactant solution is added, mixed, and placed in a 30 C incubator with mild stirring for 30 minutes. After 30 minutes has elapsed, the tube is centrifuged for 30 min at 3600 rpm. The solution is filtered through a pre-weighed 8 micron filter paper, and then dried overnight in a 50° C. oven. The insoluble zein residue is then weighed and the wt % Zein dissolved is calculated using the equation below. Each solution is analyzed in triplicate. The Zein score is normalized to a standard included in each set of tests, in this case LAE10.
# % zein dissolved=(total zein added−total zein after drying Total zein added)×100
# [8] = Foam height, high shear (Waring blender); assay type: physicochemical
# Procedure: A 0.05 wt % (actives basis) solution of the test surfactant was made in deionized water. 250 ml of the test solution was added the beaker of a Waring blender, capped, and then blended on High for 30 seconds and immediately transferred to a 1 L graduated cylinder. The total volume of foam plus liquid, as well as the liquid layer alone was recorded. The foam and liquid volumes were recorded again after 5 minutes.
# [9] = Solubility of N-alkyl-N-methylglucamines in MilliQ water and SLS/SDS solution; assay type: physicochemical; settings: for Solubility in 10 wt % SLS / Solubility in pure MilliQ: heated to 80° C., ultrasonicated, cooled to room temperature; for Solubility in 10 wt % SLS: pH 10.8-11.1; for Solubility in 10 wt % SDS: pH 11.8-12.1; for Solubility in pure MilliQ: pH 9-9.5
# Procedure: The solubility of three N-alkyl-N-methylglucamines (i.e., N-(2-ethyl-hexyl)-N-methylglucamine, N-decyl-N-methylglucamine, and N-(4-ethyl-2-methyloctyl)-N-methylglucamine) was investigated in pure MilliQ water and in a 10 wt % sodium lauryl sulfate (SLS) solution. The mixtures were heated to 80° C., ultrasonicated, and cooled to room temperature.
# [10] = High-shear foaming of N-alkyl-N-methylglucamines in commercial blender; assay type: physicochemical; settings: 1 wt % test substance in 10 wt % SDS, diluted to 0.05 wt % surfactant
# Procedure: The high-shear foaming behavior of linear and branched N-alkyl-N glucamines was investigated, as this can have an impact on their performance in home care applications. […] The solutions were heated to 80° C., ultrasonicated for 1 h, and cooled to room temperature. Finally, the as-obtained solutions were diluted with MilliQ water to obtain a 0.05 wt % surfactant solution. In agreement with the literature on branched hydrophobes, the high-shear foaming tests performed in the commercial blender indicate that the linear N-decyl-N-methylglucamine (IC10 NMG) solution foams relatively more than its branched counterpart solution. For all solutions, the initial foam volume is between 40 and 53 mL. Lauramine oxide (LAO) appears to be foamier than the N-alkyl-N-methylglucamines.
molecule,measurement,setting,value
CCCCCCCCCCCC[N+](C)(C)Cc1ccccc1.[Cl-] [BAC-12 linear],MIC < 10%,[1],0.00078 Weight percent
same,MIC < 50%,[1],0.00078 Weight percent
same,MLC,[1],0.00078 Weight percent
same,MIC < 10%,[2],0.0016 Weight percent
same,MIC < 50%,[2],0.00078 Weight percent
same,MLC,[2],0.0016 Weight percent
same,MIC < 10%,[3],0.0002 Weight percent
same,MIC < 50%,[3],0.0002 Weight percent
same,MLC,[3],0.0002 Weight percent
"CCCCC(CC)CC(CC)C[N+](C)(C)Cc1ccccc1.[Cl-] (stereo not shown) [BAC-b12, N-benzyl-2,4-diethyl-N,N-dimethyloctan-1-aminium chloride]",MIC < 10%,[1],0.0063 Weight percent
same,MIC < 50%,[1],0.0063 Weight percent
same,MLC,[1],0.0063 Weight percent
same,MIC < 10%,[2],0.0063 Weight percent
same,MIC < 50%,[2],0.0063 Weight percent
same,MLC,[2],0.0063 Weight percent
same,MIC < 10%,[3],0.00039 Weight percent
same,MIC < 50%,[3],0.00039 Weight percent
same,MLC,[3],0.00078 Weight percent
Cc1cc(O)cc(C)c1Cl [Chloroxylenol],MIC < 10%,[1],>0.0083 Weight percent
same,MIC < 50%,[1],>0.0083 Weight percent
same,MLC,[1],>0.0083 Weight percent
same,MIC < 10%,[2],0.0083 Weight percent
same,MIC < 50%,[2],0.0083 Weight percent
same,MLC,[2],>0.0083 Weight percent
same,MIC < 10%,[3],0.0042 Weight percent
same,MIC < 50%,[3],0.0042 Weight percent
same,MLC,[3],>0.0083 Weight percent
"CCCCC(CC)CC(C)C=O (stereo not shown) [Example 2, 4-ethyl-2-methyloctanal]",Biodegradation (%),[4]; Day 0,0%
same,Biodegradation (%),[4]; Day 2,0%
same,Biodegradation (%),[4]; Day 6,15%
same,Biodegradation (%),[4]; Day 7,21%
same,Biodegradation (%),[4]; Day 9,31%
same,Biodegradation (%),[4]; Day 14,47%
same,Biodegradation (%),[4]; Day 19,54%
same,Biodegradation (%),[4]; Day 23,56%
same,Biodegradation (%),[4]; Day 28,57%
same,Biodegradation (%),[4]; Day 29 (first line),57%
same,Biodegradation (%),[4]; Day 29 (second line),61%
"CCCCC(CC)CC(C=O)CC (stereo not shown) [Example 25, 2,4-diethyloctanal]",Biodegradation (%),[4]; Day 0,0%
same,Biodegradation (%),[4]; Day 2,0%
same,Biodegradation (%),[4]; Day 6,0%
same,Biodegradation (%),[4]; Day 7,9%
same,Biodegradation (%),[4]; Day 9,27%
same,Biodegradation (%),[4]; Day 14,48%
same,Biodegradation (%),[4]; Day 19,53%
same,Biodegradation (%),[4]; Day 23,53%
same,Biodegradation (%),[4]; Day 28,55%
same,Biodegradation (%),[4]; Day 29 (first line),55%
same,Biodegradation (%),[4]; Day 29 (second line),57%
"CCCCC(CC)CC(CC)C[N+](C)(C)[O-] (stereo not shown) [Example 66, 2,4-diethyl-N,N-dimethyloctan-1-amine oxide]",Foam volume After 5 min,[5]; Persil + 2% additive,303 mL
same,Difference,[5]; Persil + 2% additive,257
same,Difference,[5]; Persil + 5% additive,280
same,Initial foam volume,[5]; Persil Original 4.2 ml/L + 2% additive,560 mL
same,Wet out time,[6],>300 s
same,Zein score - normalized to LAE10,"[7]; corn, 30 min, 1 %",0.018
same,Foam volume (ml) 5 min,"[8]; 0.05 wt % in deionized water, after 5 minutes",0 mL
same,Foam volume (ml) Initial,"[8]; 0.05 wt % in deionized water, blended on High 30 seconds",370 mL
same,% decrease,"[8]; foam volume, initial to 5 min",100%
"CCCCC(CC)CN(C)C[C@H](O)[C@@H](O)[C@H](O)[C@H](O)CO (stereo partly shown) [N-(2-ethyl-hexyl)-N-methylglucamine, N-(2-ethylhexyl)-N-methylglucamine]",Solubility in 10 wt % SLS,[9],>1000 ppm
same,Solubility in 10 wt % SDS,[9],≥1%
CCCCC(CC)CC(C)CN(C)C[C@H](O)[C@@H](O)[C@H](O)[C@H](O)CO (stereo partly shown) [N-(4-ethyl-2-methyloctyl)-N-methylglucamine],Solubility in pure MilliQ,[9],<1000 ppm
same,Solubility in 10 wt % SLS,[9],>1000 ppm
same,Solubility in 10 wt % SDS,[9],≥1%
CCCCCCCCCCN(C)C[C@H](O)[C@@H](O)[C@H](O)[C@H](O)CO [N-decyl-N-methylglucamine],Solubility in pure MilliQ,[9],<1000 ppm
same,Solubility in 10 wt % SLS,[9],>1000 ppm
same,Solubility in 10 wt % SDS,[9],≥1%
same,Foam volume after 5 seconds stirring at speed 1,[10],50 mL
same,Foam volume after 5 minutes settling,[10],49 mL
Oc1cc(Cl)ccc1Oc1ccc(Cl)cc1Cl [Triclosan],MIC < 10%,[1],0.00010 Weight percent
same,MIC < 50%,[1],0.00010 Weight percent
same,MLC,[1],0.00010 Weight percent
same,MIC < 10%,[2],0.0016 Weight percent
same,MIC < 50%,[2],0.0016 Weight percent
same,MLC,[2],>0.0016 Weight percent
same,MIC < 10%,[3],0.00002 Weight percent
same,MIC < 50%,[3],0.00002 Weight percent
same,MLC,[3],0.00003 Weight percent
CCCCC(CC)CN(C)C[C@H](O)[C@@H](O)[C@H](O)[C@H](O)CO (stereo partly shown) [bC10 NMG],Foam volume after 5 seconds stirring at speed 1,[10],40 mL
same,Foam volume after 5 minutes settling,[10],38 mL
"CC(=O)[O-].[Na+] [sodium acetate, reference compound]",Biodegradation (%),[4]; Day 0,0%
same,Biodegradation (%),[4]; Day 2,32%
same,Biodegradation (%),[4]; Day 6,52%
same,Biodegradation (%),[4]; Day 7,54%
same,Biodegradation (%),[4]; Day 9,60%
same,Biodegradation (%),[4]; Day 14,66%
same,Biodegradation (%),[4]; Day 19,69%
same,Biodegradation (%),[4]; Day 23,71%
same,Biodegradation (%),[4]; Day 28,72%
same,Biodegradation (%),[4]; Day 29 (first line),74%
same,Biodegradation (%),[4]; Day 29 (second line),78%
Sodium lauryl ether sulfate [SLES],Zein score - normalized to LAE10,[7],3.488
